Test results reported in ChEMBL document CHEMBL3627701, “(2-Arylethenyl)-1,3,5-triazin-2-amines as a novel histamine H4 receptor ligands” (Eur J Med Chem, 2015).
Activity calls are given as the source filed them. The calls are words filed in the database; no cut-off is given here.

Columns and labels:
[1] = target: T1, Histamine H4 receptor (Homo sapiens, UniProt Q9H3N8); assay: Displacement of [3H]histamine from human H4 receptor expressed in Sf9 cell membranes co-expressing Galphai2 and Gbeta1gamma2 after 60 mins by liquid scintillation counting assay; assay type: cell-based
T1 sequence (Q9H3N8 whole entry): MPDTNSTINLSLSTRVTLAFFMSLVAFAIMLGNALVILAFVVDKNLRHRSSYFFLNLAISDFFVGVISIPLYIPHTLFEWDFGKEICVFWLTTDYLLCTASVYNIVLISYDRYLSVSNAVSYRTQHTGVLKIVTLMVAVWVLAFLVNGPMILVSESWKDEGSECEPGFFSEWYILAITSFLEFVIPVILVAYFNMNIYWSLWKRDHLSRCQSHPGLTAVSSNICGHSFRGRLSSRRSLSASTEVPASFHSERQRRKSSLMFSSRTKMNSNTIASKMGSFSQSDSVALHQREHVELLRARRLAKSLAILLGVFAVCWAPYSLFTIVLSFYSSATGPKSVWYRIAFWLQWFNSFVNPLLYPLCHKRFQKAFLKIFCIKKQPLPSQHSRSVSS

[2] = test system: Liver microsome; assay: Retention time in human liver microsomes at 50 uM after 48 hrs by LC-MS analysis; assay type: ADME
[3] = test system: Liver microsome; assay: Drug level in human liver microsomes treated with 50 uM 4-[(E)-2-(3-chlorophenyl)ethenyl]-6-(4-methylpiperazin-1-yl)-1,3,5-triazin-2-amine assessed as compound formation after 48 hrs by LC-MS analysis; assay type: ADME
[4] = target: T2, Histamine H4 receptor (Mus musculus, UniProt Q91ZY2); assay: Displacement of [3H]histamine from mouse H4 receptor expressed in HEK293 cell membranes co-expressing Galphai2 and Gbeta1gamma2 after 1 hr by liquid scintillation counting assay
T2 sequence (Q91ZY2 whole entry): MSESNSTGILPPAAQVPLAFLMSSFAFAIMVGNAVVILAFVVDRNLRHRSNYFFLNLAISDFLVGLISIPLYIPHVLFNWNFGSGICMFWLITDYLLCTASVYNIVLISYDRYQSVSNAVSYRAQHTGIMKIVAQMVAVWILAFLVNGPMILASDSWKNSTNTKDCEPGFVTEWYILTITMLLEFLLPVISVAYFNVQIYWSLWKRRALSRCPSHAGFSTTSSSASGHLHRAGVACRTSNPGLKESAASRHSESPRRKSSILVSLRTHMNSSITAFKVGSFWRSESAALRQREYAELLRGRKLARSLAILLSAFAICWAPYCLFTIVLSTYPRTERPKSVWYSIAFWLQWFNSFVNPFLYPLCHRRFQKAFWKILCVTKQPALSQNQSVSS

[5] = target: T1, Histamine H4 receptor; assay: Antagonist activity at human H4R expressed in CHO cells assessed as inhibition of forskolin-induced cAMP accumulation after 30 mins by TR-FRET immunoassay; assay type: functional, cell-based
[6] = target: Histamine H3 receptor (Homo sapiens) (UniProt Q9Y5N1); assay: Displacement of [3H]-N-alpha-methylhistamine from human H3 receptor expressed in HEK293 cells at >=30 uM after 60 mins by liquid scintillation counter assay; assay type: cell-based
Chain of Histamine H3 receptor (Homo sapiens) (Q9Y5N1 whole entry): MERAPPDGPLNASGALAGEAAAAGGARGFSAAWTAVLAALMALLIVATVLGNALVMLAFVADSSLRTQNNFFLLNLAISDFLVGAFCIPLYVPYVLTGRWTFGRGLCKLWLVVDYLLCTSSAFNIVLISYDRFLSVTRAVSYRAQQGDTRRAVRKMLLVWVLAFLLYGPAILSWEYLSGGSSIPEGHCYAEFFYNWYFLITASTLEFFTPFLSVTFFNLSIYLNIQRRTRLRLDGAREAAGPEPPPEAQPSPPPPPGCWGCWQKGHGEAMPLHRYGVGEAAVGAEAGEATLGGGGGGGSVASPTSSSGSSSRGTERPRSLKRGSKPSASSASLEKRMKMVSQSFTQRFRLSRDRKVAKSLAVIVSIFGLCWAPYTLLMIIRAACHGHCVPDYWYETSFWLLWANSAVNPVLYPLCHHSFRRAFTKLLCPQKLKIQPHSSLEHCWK

[7] = test system: HEK293; assay: Antiproliferative activity against HEK293 cells assessed as inhibition of cell viability at 0.01 to 250 uM after 48 hrs; assay type: cell-based; settings: human, hek293, 48 h
[8] = Antiproliferative activity against human IMR32 cells assessed as inhibition of cell viability at 0.01 to 250 uM after 48 hrs; assay type: cell-based; settings: imr-32, 48 h
[9] = Ratio of IC50 for doxorubicin to antiproliferative activity for test compound against human IMR32 cells; assay type: cell-based, IMR-32; settings: read-out: Ratio IC50
[10] = test system: Salmonella typhimurium; assay: Genotoxicity in Salmonella typhimurium TA98 at 1 to 100 uM after 48 hrs by MPF assay; assay type: toxicity, organism-based; settings: salmonella enterica subsp. enterica serovar typhimurium
[11] = target: CYP3A4 (Homo sapiens, UniProt P08684); assay: Inhibition of human recombinant CYP3A4 assessed as conversion of luciferin-PPXE to D-luciferin at 25 uM by luminescence Glo assay relative to control; assay type: ADME; settings: recombinant CYP3A4, probe luciferin-PPXE
Chain of CYP3A4 (P08684 whole entry): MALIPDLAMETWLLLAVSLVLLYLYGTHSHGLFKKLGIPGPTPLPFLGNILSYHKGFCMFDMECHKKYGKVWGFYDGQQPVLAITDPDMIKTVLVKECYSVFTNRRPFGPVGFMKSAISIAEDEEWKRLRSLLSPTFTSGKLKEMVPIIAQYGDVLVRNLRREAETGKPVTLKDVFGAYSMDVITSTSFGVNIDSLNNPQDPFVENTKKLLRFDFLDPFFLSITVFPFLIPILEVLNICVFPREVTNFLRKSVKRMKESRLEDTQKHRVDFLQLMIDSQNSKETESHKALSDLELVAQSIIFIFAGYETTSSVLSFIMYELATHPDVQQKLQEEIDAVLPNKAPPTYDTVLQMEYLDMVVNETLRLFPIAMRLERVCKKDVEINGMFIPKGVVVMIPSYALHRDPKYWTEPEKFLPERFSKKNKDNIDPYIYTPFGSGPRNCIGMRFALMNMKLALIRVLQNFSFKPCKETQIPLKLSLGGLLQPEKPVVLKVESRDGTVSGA

[12] = test system: Mus musculus; assay: Antiinflammatory activity in albino Swiss mouse assessed as inhibition of carrageenan-induced paw edema at 50 mg/kg, po administered prior to carrageenan challenge measured after 1 hr by plethysmometry relative to control; assay type: functional
[13] = test system: Mus musculus; assay: Antiinflammatory activity in albino Swiss mouse assessed as inhibition of carrageenan-induced paw edema at 50 mg/kg, po administered prior to carrageenan challenge measured after 2 hrs by plethysmometry relative to control; assay type: functional
[14] = test system: Mus musculus; assay: Antiinflammatory activity in albino Swiss mouse assessed as inhibition of carrageenan-induced paw edema at 50 mg/kg, po administered prior to carrageenan challenge measured after 3 hrs by plethysmometry relative to control; assay type: functional
[15] = test system: Mus musculus; assay: Antiinflammatory activity in albino Swiss mouse assessed as inhibition of carrageenan-induced paw edema at 10 mg/kg, po administered prior to carrageenan challenge measured after 1 to 3 hrs by plethysmometry relative to control; assay type: functional
[16] = test system: Mus musculus; assay: Antiinflammatory activity in albino Swiss mouse assessed as inhibition of carrageenan-induced paw edema at 25 mg/kg, po administered prior to carrageenan challenge measured after 1 hr by plethysmometry relative to control; assay type: functional
[17] = test system: Mus musculus; assay: Antiinflammatory activity in albino Swiss mouse assessed as inhibition of carrageenan-induced paw edema at 25 mg/kg, po administered prior to carrageenan challenge measured after 2 hrs by plethysmometry relative to control; assay type: functional
[18] = test system: Mus musculus; assay: Antiinflammatory activity in albino Swiss mouse assessed as inhibition of carrageenan-induced paw edema at 25 mg/kg, po administered prior to carrageenan challenge measured after 3 hrs by plethysmometry relative to control; assay type: functional
[19] = test system: Liver microsome; assay: Drug metabolism in human liver microsomes assessed as metabolite M1 formation at 50 uM after 48 hrs by LC-MS analysis; assay type: ADME
[20] = test system: Liver microsome; assay: Drug metabolism in human liver microsomes assessed as metabolite M2 formation at 50 uM after 48 hrs by LC-MS analysis; assay type: ADME
[21] = test system: Mus musculus; assay: Antiinflammatory activity in albino Swiss mouse assessed as inhibition of carrageenan-induced paw edema at 50 mg/kg, po administered prior to carrageenan challenge measured after 1 to 3 hrs by plethysmometry relative to control; assay type: functional
[22] = test system: Mus musculus; assay: Antiinflammatory activity in albino Swiss mouse assessed as inhibition of carrageenan-induced paw edema at 25 mg/kg, po administered prior to carrageenan challenge measured after 1 to 3 hrs by plethysmometry relative to control; assay type: functional
[23] = Antiproliferative activity against human IMR32 cells assessed as inhibition of cell viability after 48 hrs; assay type: cell-based; settings: IMR-32, 48 h
[24] = test system: Mus musculus; assay: Antiinflammatory activity in albino Swiss mouse assessed as inhibition of carrageenan-induced paw edema at 10 mg/kg, po administered prior to carrageenan challenge measured after 1 hr by plethysmometry relative to control; assay type: functional
[25] = test system: Mus musculus; assay: Antiinflammatory activity in albino Swiss mouse assessed as inhibition of carrageenan-induced paw edema at 10 mg/kg, po administered prior to carrageenan challenge measured after 2 hrs by plethysmometry relative to control; assay type: functional
[26] = test system: Mus musculus; assay: Antiinflammatory activity in albino Swiss mouse assessed as inhibition of carrageenan-induced paw edema at 10 mg/kg, po administered prior to carrageenan challenge measured after 3 hrs by plethysmometry relative to control; assay type: functional

Q: With CN1CCN(c2nc(N)nc(/C=C/c3ccccc3Cl)n2)CC1 as the compound, how does the Ki [1] read?
A: 4860 nM

Q: Which Ki [1] does the source give for CN1CCN(c2nc(N)nc(/C=C/c3ccc(Cl)cc3Cl)n2)CC1 here?
A: 9040 nM

Q: For CN1CCN(c2nc(N)nc(/C=C/c3cccc([N+](=O)[O-])c3)n2)CC1, which Ki [1] is on record?
A: 2570 nM

Q: Which Ki [1] does the source give for CN1CCN(c2nc(N)nc(/C=C/c3ccc(Cl)c(Cl)c3)n2)CC1 here?
A: 1780 nM

Q: With Cc1ccc(/C=C/c2nc(N)nc(N3CCN(C)CC3)n2)cc1 as the compound, how does the Ki [1] read?
A: 37400 nM

Q: With Cc1ccccc1/C=C/c1nc(N)nc(N2CCN(C)CC2)n1 as the compound, how does the Ki [1] read?
A: 2230 nM

Q: For CN1CCN(c2nc(N)nc(/C=C/c3cccc(C#N)c3)n2)CC1, which Ki [1] is on record?
A: 2640 nM

Q: Which Ki [1] does the source give for CN1CCN(c2nc(N)nc(/C=C/c3cccc4ccccc34)n2)CC1 here?
A: 30000 nM

Q: Which Ki [1] does the source give for CN1CCN(c2nc(N)nc(/C=C/c3ccc4ccccc4c3)n2)CC1 here?
A: 3790 nM

Q: Which Retention_time [2] does the source give for Nc1nc(/C=C/c2cccc(Cl)c2)nc(N2CCNCC2)n1 here?
A: 3.55 min

Q: What about the Drug metabolism [3] of the same compound?
A: metabolite_detected

Q: For CN1CCN(c2nc(N)nc(/C=C/c3c[nH]c4ccccc34)n2)CC1, which Ki [1] is on record?
A: 2520 nM

Q: With CN1CCN(c2nc(N)nc(/C=C/c3ccc(Cl)cc3)n2)CC1 as the compound, how does the Ki [1] read?
A: 4210 nM

Q: Which Ki [1] does the source give for CN1CCN(c2nc(N)nc(/C=C/c3cccc(Cl)c3)n2)CC1 here?
A: 253 nM

Q: What about the Ki [4] of the same compound?
A: 854 nM

Q: What about the IC50 [5] of the same compound?
A: 439 nM

Q: What about the inhibition [6] of the same compound?
A: Active

Q: What about the Activity [7] of the same compound?
A: Non-toxic

Q: And the Activity [8]?
A: Non-toxic

Q: And the selectivity ratio [9]?
A: > 1000

Q: And the Activity [10]?
A: Non-toxic

Q: And the Retention_time [2]?
A: 3.63 min

Q: And the inhibition at 25 µM [11]?
A: 58%

Q: And the inhibition in vivo at 50 mg/kg [12]?
A: 69%

Q: And the inhibition in vivo at 50 mg/kg [13]?
A: 62%

Q: And the inhibition in vivo at 50 mg/kg [14]?
A: 67%

Q: What about the inhibition in vivo at 10 mg/kg [15] of the same compound?
A: 50%

Q: And the inhibition in vivo at 25 mg/kg [16]?
A: 59%

Q: What about the inhibition in vivo at 25 mg/kg [17] of the same compound?
A: 58%

Q: And the inhibition in vivo at 25 mg/kg [18]?
A: 65%

Q: And the Drug metabolism [19]?
A: metabolite_detected

Q: And the Drug metabolism [20]?
A: metabolite_detected

Q: With CN1CCN(c2nc(N)nc(/C=C/c3ccccc3)n2)CC1 as the compound, how does the Ki [1] read?
A: 5210 nM

Q: With CN1CCN(c2nc(N)nc(/C=C/c3cccc(F)c3)n2)CC1 as the compound, how does the Ki [1] read?
A: 3520 nM

Q: Which Ki [1] does the source give for CN1CCN(c2nc(N)nc(/C=C/c3cccc(Br)c3)n2)CC1 here?
A: 1140 nM

Q: Which Ki [1] does the source give for Cc1cccc(/C=C/c2nc(N)nc(N3CCN(C)CC3)n2)c1 here?
A: 703 nM

Q: And the IC50 [5]?
A: 606 nM

Q: What about the inhibition [6] of the same compound?
A: Active

Q: And the inhibition in vivo at 50 mg/kg [21]?
A: 88%

Q: What about the inhibition in vivo at 25 mg/kg [22] of the same compound?
A: 53%

Q: With CN1CCN(c2nc(N)nc(/C=C/c3cccc(C(F)(F)F)c3)n2)CC1 as the compound, how does the Ki [1] read?
A: 2450 nM

Q: Which IC50 [23] does the source give for COc1cccc2c1C(=O)c1c(O)c3c(c(O)c1C2=O)C[C@@](O)(C(=O)CO)C[C@@H]3O[C@H]1C[C@H](N)[C@H](O)[C@H](C)O1 [DOXORUBICIN] here?
A: 5.1 nM

Q: Which results are given for CC(C(=O)O)c1cccc(C(=O)c2ccccc2)c1 (stereo unspecified) [KETOPROFEN]?
A: inhibition in vivo at 50 mg/kg [12]: 67%; inhibition in vivo at 50 mg/kg [13]: 71%; inhibition in vivo at 50 mg/kg [14]: 77%; inhibition in vivo at 25 mg/kg [16]: 20%; inhibition in vivo at 25 mg/kg [17]: 54%; inhibition in vivo at 25 mg/kg [18]: 67%; inhibition in vivo at 10 mg/kg [24]: 27%; inhibition in vivo at 10 mg/kg [25]: 55%; inhibition in vivo at 10 mg/kg [26]: 63%
